Entries after “also recorded” stand apart in the source; their conditions may differ.
Assays:
[1] = test system: ROS generated by xanthine/xanthine oxidase; assay: Superoxide assay in vitro: xanthine/xanthine oxidase, NBT reduction; type: biochemical; conditions: low micromolar concentrations, FIG. 10
Protocol: Superoxide radicals were generated by the reaction of xanthine (1 mM) and xanthine oxidase ([…]) in air-saturated potassium phosphate buffer (pH 7.8 at 25° C.). Superoxide anions were detected by nitroblue tetrazolium (NBT—50 μM) which undergoes reduction by O2-. to its formazan. The rate of reduction was monitored spectrophotometrically at 560 nm with an Ultrospec 1000 (Pharmacia Biotech, Cambridge, England). SOD-1, by scavanging O2-. Diminishes the rate of reduction of NBT. The volume was fixed at 2 mL. Each experiment was run in duplicate.

aortic rings = assay: Rat aortic thoracic rings: acetylcholine relaxation after phenylephrine contraction, 4-week oral treatment; type: in vivo, alloxan-diabetic male Wistar rats; conditions: for endothelial dysfunction overall: 4-week oral administration versus saline treated alloxan diabetic rats; for effect on macrovascular endothelial dysfunction at highest acetyl choline concentrations: FIG. 2, FIG. 3; for effect on macrovascular endothelial dysfunction at intermediate acetylcholine concentration: acetylcholine 10^-7 M
Protocol: Male Wistar rats, weighing between 230-250 g, fed regular chow, with free access to water were separated in four groups (n=10/each). The first two groups, termed normoglycemic, were treated with saline (0.1 mL/100 g/12 h) by the oral route (intragastric gavage) or untreated for four weeks. The second two groups, hyperglycemic, were treated with saline (0.1 mL/100 g/12 h) or treated with D-chiro-inositol (20 mg/kg/12 h) under the same protocol. […] Diabetes was induced by a single intravenous injection of 45 mg/kg alloxan as described by Sannomiya et al., 1997 ( ). Diabetes was diagnosed 96 h after injection by blood glucose assay >200 mg/dL. All protocols were approved by the local committee and follow the Guide for the Care and Use of Laboratory Animals published by the US National Institutes of Health (NIH Publication No. 85-23, revised 1996). After completion of blood pressure measurements and vascular mesenteric bed collection, animals were sacrificed by exsanguination while under anesthesia. The thoracic aorta was excised and rapidly cleansed of connective tissue in Petri dishes containing warmed and gassed (95% O2 in 5% CO2) Krebs-Henseleit solution (KHS). The aorta segment was cut in small rings (≈5 mm) and mounted horizontally in 5 mL chambers for isometric recording of tension. The resting tension was adjusted to 1 g and the tissue allowed to equilibrate for 1 hour with a 15 min washout period. Tissues were kept in KHS at 37° C., gassed with the O2, CO2 mixture and isometric recordings made with a force displacement transducer connected to a four-channel polygraph (Narco Biosystems, Houston, Tex., USA). After the equilibration period, tissues were contracted with a submaximal concentration of phenylephrine (≈60% maximal response) until two similar responses were obtained in order to ensure reproducibility of the contraction curves. […] The acetylcholine dose response curve was repeated after a 60 min washout interval. All experiments were performed in the presence of indomethecin (10 μM) and guanethidine (10 μM) to prevent the production of vasoactive prostanoids. At least 6 separate experiments will be performed each in duplicate.

[2] = Blood glucose and serum triglycerides after chronic administration in alloxan diabetic rats; type: in vivo, alloxan induced diabetic rats; conditions: 20 mg/kg 2× daily for 4 weeks
Description: The use of DCI and its derivative for the treatment of a variety of metabolic disorders, more specifically those that are related to insulin resistance have been the subject matter of patents and publications. The treatment of insulin resistance in humans by the administration of DCI was the subject matter of U.S. Pat. No. 5,124,360. Since DCI is found in the food chain it has a safety profile that warrants its use as a nutritional supplement. A method of treating a cluster of diseases with elevated blood sugar by the administration of a dietary supplement of DCI was the subject of U.S. Pat. No. 5,428,066.
Male Wistar rats, weighing between 230-250 g, fed regular chow, with free access to water were separated in four groups (n=10/each). The first two groups, termed normoglycemic, were treated with saline (0.1 mL/100 g/12 h) by the oral route (intragastric gavage) or untreated for four weeks. The second two groups, hyperglycemic, were treated with saline (0.1 mL/100 g/12 h) or treated with D-chiro-inositol (20 mg/kg/12 h) under the same protocol. […] Diabetes was induced by a single intravenous injection of 45 mg/kg alloxan as described by Sannomiya et al., 1997 ( ). Diabetes was diagnosed 96 h after injection by blood glucose assay >200 mg/dL. […]

[3] = several publications; cited from earlier work
diabetic RbCC = assay: Relaxant response of diabetic RbCC to NO and Ach after in vitro inositol addition; conditions: in vitro inositol addition (one hour)
Protocol: NO action was investigated in aortic rings and RbCC. […] The data in FIGS. 14 are expressed as mean±SEM of 5 experimental units. * p<0.05, ANOVA followed by Tukey-Kramer, diab (C) vs. Inositol treated. # p<0.05, ANOVA followed by Tukey-Kramer, Eugly vs. Inositol treated. In FIG. 14, Veh=vehicle; C=diabetic control; Diab=diabetic control; Eugly=euglycemic tissue. Relaxation was restored toward or to normal by incubation with inositols.

[4] = chronic oral administration, FIG. 3

reduction of ROS generated by xanthine/xanthine oxidase ([1]; listed as D-chiro-inositol) | Compound | reduction of ROS generated by xanthine/xanthine oxidase [1] | endothelial dysfunction overall (aortic rings) | endothelial dysfunction overall (aortic rings; listed as D-chiro-inositol) | relaxant response induced by acetylcholine, reversal of the pre-contractile state (aortic rings; D-chiro-inositol 20 mg/kg/12 h by gavage four weeks, lower acetylcholine concentrations, saline diabetic 57.4±4.5%) [%] | effect on macrovascular endothelial dysfunction at highest acetyl choline concentrations (aortic rings; chronic oral administration) | effect on macrovascular endothelial dysfunction at intermediate acetylcholine concentration (aortic rings; [4]) | effect on macrovascular endothelial dysfunction at intermediate acetylcholine concentration (aortic rings; chronic oral administration, FIG. 3, listed as D-chiro-inositol) | blood glucose [2] | serum triglycerides [2] | hyperglycemia, triglyceridemia and glucose disposal [3] | reduction of ROS generated by xanthine/xanthine oxidase ([1]; listed as dibutyryl D-chiro-inositol) | effect on macrovascular endothelial dysfunction at lowest acetyl choline concentrations (aortic rings; [4]) | relaxant response to graded concentrations of NO and to Ach (diabetic RbCC)
equally effective | OC1C(O)C(O)C(O)C(O)C1O [DCI, D-chiro-inositol] | reduced ROS in a low micromolar concentration dependant manner | effective in improving endothelial dysfunction | prevented the endothelial dysfunction | 100 | partially restored to normal; also recorded: the most effective | followed by DCI, pinitol and myoinositol in descending order of effect | active at intermediate acetyl choline concentrations | decreased | decreased | effective decrease of hyperglycemia, triglyceridemia and enhanced glucose disposal | – | – | –
– | CCCC(=O)O[C@@H]1[C@@H](O)[C@@H](O)[C@H](O)[C@H](O)[C@H]1OC(=O)CCC [dbDCI, 3,4-dibutyryl-D-chiroinositol] | reduced ROS in a low micromolar concentration dependant manner; also recorded: statistically more effective than the other 3 inositols | – | – | – | the most effective | greatest effect | – | – | – | – | statistically more effective than the other 3 inositols | most effective at the lowest acetyl choline concentrations | more effective than the other three inositols

— patent US20060258754A1, “Method of treating endothelial dysfunction, oxidative stress and related diseases” (priority 2004, published 2006)
